Laboratory results published in PubChem BioAssay AID1259407 (Chemical Carcinogenesis Research Information System (CCRIS), 2018).
Activity calls are given as the source filed them. No rule for the calls is given here.

System: CCRIS mutagenicity, Ames/micronucleus/aberration tests
Assay: CCRIS mutagenicity studies
[1] = Test System: AMES SALMONELLA TYPHIMURIUM, Strain/Indicator: TA98, Metabolic Activation: NONE, Method: PREINCUBATION
[2] = Test System: AMES SALMONELLA TYPHIMURIUM, Strain/Indicator: TA100, Metabolic Activation: NONE, Method: PREINCUBATION
[3] = Test System: AMES SALMONELLA TYPHIMURIUM, Strain/Indicator: TA98, Metabolic Activation: NONE, Method: STANDARD PLATE
[4] = Test System: AMES SALMONELLA TYPHIMURIUM, Strain/Indicator: TA100, Metabolic Activation: NONE, Method: STANDARD PLATE
[5] = Test System: AMES SALMONELLA TYPHIMURIUM, Strain/Indicator: TA100, Metabolic Activation: RAT, LIVER, S-9, AROCLOR 1254, Method: STANDARD PLATE

Measured: mutagenic call

CC1=C[C@]2(O[C@@H]3O[C@H](CO)[C@@H](O)[C@H](O)[C@H]3O)C[C@@H](C)C(=O)[C@@H]2[C@](C)(O)C12CC2
inactive: Test System: AMES SALMONELLA TYPHIMURIUM, Strain/Indicator: TA98, Metabolic Activation: NONE, Method: PREINCUBATION (PH 7.4) inactive; negative | Test System: AMES SALMONELLA TYPHIMURIUM, Strain/Indicator: TA98, Metabolic Activation: S-9, Method: PREINCUBATION (PH 7.4) inactive; negative | Test System: AMES SALMONELLA TYPHIMURIUM, Strain/Indicator: TA100, Metabolic Activation: NONE, Method: PREINCUBATION (PH 7.4) inactive; negative | Test System: AMES SALMONELLA TYPHIMURIUM, Strain/Indicator: TA100, Metabolic Activation: S-9, Method: PREINCUBATION (PH 7.4) inactive; negative
active: [1] active; positive | Test System: AMES SALMONELLA TYPHIMURIUM, Strain/Indicator: TA98, Metabolic Activation: NONE, Method: PREINCUBATION (PH 8.5) active; positive | [2] active; positive | Test System: AMES SALMONELLA TYPHIMURIUM, Strain/Indicator: TA100, Metabolic Activation: NONE, Method: PREINCUBATION (PH 8.5) active; positive | Test System: UDS RAT HEPATOCYTES, Strain/Indicator: THY INCORP, Metabolic Activation: NONE, Method: AUTORADIOGRAPHY active; positive

O=[N+]([O-])c1ccc2c(c1)NCC2
active: [3] active; positive

ONc1ncnc2c1ncn2Cc1ccccc1
inactive: [3] inactive; negative
active: Test System: AMES SALMONELLA TYPHIMURIUM, Strain/Indicator: TA97, Metabolic Activation: NONE, Method: STANDARD PLATE active; positive | Test System: AMES SALMONELLA TYPHIMURIUM, Strain/Indicator: TA97, Metabolic Activation: RAT, LIVER, S-9, AROCLOR 1254, Method: STANDARD PLATE active; positive | Test System: AMES SALMONELLA TYPHIMURIUM, Strain/Indicator: TA98, Metabolic Activation: RAT, LIVER, S-9, AROCLOR 1254, Method: STANDARD PLATE active; positive | [4] active; positive | [5] active; positive

Fc1cnc2ccc3ccccc3c2c1
active: Test System: AMES SALMONELLA TYPHIMURIUM, Strain/Indicator: TA100, Metabolic Activation: RAT, LIVER, S-9, PHENOBARBITAL AND 5,6-BENZOFLAVONE, Method: PREINCUBATION active; positive

ClC[C@@H]1CO1
active: [2] active; positive | [4] active; positive | Test System: AMES SALMONELLA TYPHIMURIUM, Strain/Indicator: TA100, Metabolic Activation: RAT, LIVER, S-9, PCB, Method: PREINCUBATION active; positive

CC(=O)N(O)c1ccc2ccccc2c1
inactive: [1] inactive; negative | Test System: AMES SALMONELLA TYPHIMURIUM, Strain/Indicator: TA98, Metabolic Activation: RAT, LIVER, CYTOSOL, Method: PREINCUBATION inactive; negative
active: Test System: AMES SALMONELLA TYPHIMURIUM, Strain/Indicator: TA98, Metabolic Activation: RAT, LIVER, MICROSOMES, Method: PREINCUBATION active; positive

CC(C)(C)C(=O)C1C(=O)c2ccccc2C1=O
inactive: Test System: AMES SALMONELLA TYPHIMURIUM, Strain/Indicator: TA98, Metabolic Activation: HAMSTER, LIVER, S-9, AROCLOR 1254 (10%), Method: PREINCUBATION inactive; negative | [1] inactive; negative | Test System: AMES SALMONELLA TYPHIMURIUM, Strain/Indicator: TA98, Metabolic Activation: RAT, LIVER, S-9, AROCLOR 1254 (10%), Method: PREINCUBATION inactive; negative | Test System: AMES SALMONELLA TYPHIMURIUM, Strain/Indicator: TA100, Metabolic Activation: HAMSTER, LIVER, S-9, AROCLOR 1254 (10%), Method: PREINCUBATION inactive; negative | [2] inactive; negative | Test System: AMES SALMONELLA TYPHIMURIUM, Strain/Indicator: TA100, Metabolic Activation: RAT, LIVER, S-9, AROCLOR 1254 (10%), Method: PREINCUBATION inactive; negative | Test System: AMES SALMONELLA TYPHIMURIUM, Strain/Indicator: TA1535, Metabolic Activation: HAMSTER, LIVER, S-9, AROCLOR 1254 (10%), Method: PREINCUBATION inactive; negative | Test System: AMES SALMONELLA TYPHIMURIUM, Strain/Indicator: TA1535, Metabolic Activation: NONE, Method: PREINCUBATION inactive; negative | Test System: AMES SALMONELLA TYPHIMURIUM, Strain/Indicator: TA1535, Metabolic Activation: RAT, LIVER, S-9, AROCLOR 1254 (10%), Method: PREINCUBATION inactive; negative | Test System: AMES SALMONELLA TYPHIMURIUM, Strain/Indicator: TA1537, Metabolic Activation: HAMSTER, LIVER, S-9, AROCLOR 1254 (10%), Method: PREINCUBATION inactive; negative | Test System: AMES SALMONELLA TYPHIMURIUM, Strain/Indicator: TA1537, Metabolic Activation: NONE, Method: PREINCUBATION inactive; negative | Test System: AMES SALMONELLA TYPHIMURIUM, Strain/Indicator: TA1537, Metabolic Activation: RAT, LIVER, S-9, AROCLOR 1254 (10%), Method: PREINCUBATION inactive; negative

COc1cc(-c2ccc(-[n+]3nc(-c4ccccc4)nn3-c3ccc([N+](=O)[O-])cc3)c(OC)c2)ccc1-[n+]1nc(-c2ccccc2)nn1-c1ccc([N+](=O)[O-])cc1
active: [4] active; positive | Test System: AMES SALMONELLA TYPHIMURIUM, Strain/Indicator: TA100, Metabolic Activation: S-9 MIX, Method: STANDARD PLATE active; positive

CCCCC(=O)N=c1sn(C(=O)CCCC)c2ccc([N+](=O)[O-])cc12
active: Test System: AMES SALMONELLA TYPHIMURIUM, Strain/Indicator: TA100, Metabolic Activation: S-9, Method: STANDARD PLATE active; positive

COC(=O)c1oc(N(OC(C)=O)C(C)=O)c(-c2ccccc2)c1-c1ccccc1
inactive: [1] inactive; negative | Test System: AMES SALMONELLA TYPHIMURIUM, Strain/Indicator: TA98, Metabolic Activation: RAT, LIVER, S-9, AROCLOR, Method: PREINCUBATION inactive; negative | [2] inactive; negative | Test System: AMES SALMONELLA TYPHIMURIUM, Strain/Indicator: TA100, Metabolic Activation: RAT, LIVER, S-9, AROCLOR, Method: PREINCUBATION inactive; negative

C[C@H](CCC(=O)O)[C@H]1CC[C@H]2[C@@H]3[C@H](O)C[C@@H]4C[C@H](O)CC[C@]4(C)[C@H]3CC[C@]12C
inactive: [4] inactive; negative | [5] inactive; negative

O=[N+]([O-])c1c(Cl)c(Cl)c2c(c1Cl)Oc1cc(Cl)c(Cl)cc1O2
inactive: [4] inactive; negative
active: [3] active; positive | Test System: AMES SALMONELLA TYPHIMURIUM, Strain/Indicator: TA98, Metabolic Activation: RAT, LIVER, S-9, AROCLOR, Method: STANDARD PLATE active; positive | Test System: AMES SALMONELLA TYPHIMURIUM, Strain/Indicator: TA100, Metabolic Activation: RAT, LIVER, S-9, AROCLOR, Method: STANDARD PLATE active; positive
